Assay results reported in US8795707B2, “Compliant composites for application of drug-eluting coatings to tissue surfaces” (Trustees of Boston University, priority 2008, dated 2014).

How the values were obtained:
[1] = Release of 10-hydroxycamptothecin from polymer-collagen composites; type: physicochemical; conditions: PBS at 37° C.
Procedure: Using the procedures from Example 2, a composite was constructed from a collagen-based scaffold with a poly(caprolactone) barrier layer and two 10-hydroxycaptothecin-loaded (2% w/w) poly(glycerol monostearate) layers. The composites were submerged in 0.150 mL of PBS at 37° C. At specific time points, an aliquot of release media was removed and the concentration of HCPT was measured by fluorescence spectroscopy (λEx=382 nm and λEm=550 nm, Photon Technology International QM-4/2005 spectrofluorimeter). A calibration curve was constructed from nine samples of known HCPT concentrations with linearity observed from 10 nM to 5 μM (R^2=0.999) from which the drug concentration of each aliquot was determined. After the completion of release, the HCPT remaining in each film was quantified. Films were dissolved CH2Cl2 to release encapsulated drug, the solvent evaporated, and PBS (150 mL) was added under rigorous stirring. The fluorescence spectrum was recorded and remaining drug measured.

[2] = system: 4T1 metastatic mammary mouse tumor cells; conditions: implants co-implanted with 4T1 cells; cited from earlier work
tumor = conditions: pouch sutured subcutaneously, loaded three days after tumor inoculation; 30 day observation period; cited from earlier work

Q: With `CC[C@@]1(O)C(=O)OCc2c1cc1n(c2=O)Cc2cc3cc(O)ccc3nc2-1` [10-hydroxycamptothecin] as the molecule, how does the “HCPT released over the first 24 hours” value ([1]; collagen scaffold, poly(caprolactone) barrier, two 2% w/w HCPT layers) read?
A: about 10%

Q: What about the “HCPT release rate after the first five weeks” value ([1]; same composite) of the same molecule?
A: 0.5 % release per day

Q: And the “HCPT release rate, first two weeks” value ([1]; same composite)?
A: 2 % loading per day

Q: And the “HCPT release rate, following three weeks” value ([1]; same composite)?
A: approximately 1 % per day

Q: What about the “duration of continued release detected” value ([1]; same composite) of the same molecule?
A: at least 6 weeks

Q: For `CC(C)CCCC(C)C1CCC2C3CC(C[131I])C4=C(CCC(O)C4)C3CCC12C` (stereo not shown) [^131I-norcholesterol], which “mice in which tumor growth was prevented” value [2] is on record?
A: 69%

Q: With `Nc1ccn([C@@H]2O[C@H](CO)[C@@H](O)C2(F)F)c(=O)n1` [gemcitabine] as the molecule, how does the “mice with no observable tumor mass” value (tumor) read?
A: Four of six
